Reference: US9315492B2, “Heterocyclic group contained amino-methanol derivative, and salt, synthetic method and use thereof” (BEIJING FORELAND BIOPHARMA CO., LTD., priority 2012, dated 2016)

Columns and labels:
[1] = tested on: autoimmune multiple sclerosis (PLP139-151 immunized mice); assay: Experimental autoimmune multiple sclerosis; format: in vivo; settings: SJL/J mice, 5 and 30 mg/kg/d intragastric, 30 days
S1P1 [2] = molecular target: T1, S1P1 (Homo sapiens (Human), UniProt P21453); assay: S1P1 β-arrestin assay (PathHunter CHO-K1 EDG1); format: cell-based; settings: CHO-EDG-1 cells
Description: 2.1 Experimental Materials: Path hunter express CHO-K1 EDG1 β-arrestin GPCR Assay was purchased from DiscoveRx, containing CHO-EDG-1 cells, buffers, substrate-1, substrate-2, cell culture fluid, 96-well cell culture plate.
1) The test compounds were dissolved in DMSO and prepared as a concentration of 20 mM.
2) The concentrations of the test compounds were detected ranging from […] to 20 μM.
4) Assay procedures: OCC culture solution was preheated in water tank at 37° C. Cells were taken out from liquor nitrogen tank, left on the dry-ice, and dissolved in water tank at 37° C. 0.5 ml OCC culture solution was added and blended slowly. The cells were diluted in 11.5 mL OCC culture solution, and 100 μL cell suspension (containing 8333 cells) was added to each well of the 96-well plate. The 96-well plate was incubated for 8 hours under 5% CO2 at 37° C., and 10 μL test compound dissolved in DMSO was added in; 10 μL DMSO was used as negative control. After the plate was incubated for 90 min at 37° C., 55 μL detection solution was added to each well. Then the results were read out by EnVision after the cell plate was incubated for 90 min at room temperature.
The EC50 Value was Calculated by Using Prism 4 Software

S1P1 [3] = molecular target: T1, S1P1; assay: S1P1 GTPγS binding assay; format: biochemical; settings: [35S]-GTPγS, membranes with high-expressed S1P1 (CHO-S1P1)
Description: 1. S1P1GTPγS Binding Assay
2) T-75 cell culture plate; 150 mm cell culture dish
3) DMEM cell culture fluid; 10% (v/v) fetal bovine serum; 100 U/ml penicillin-100 μg/ml streptomycin; 2 mM […], 1 mg/ml G-418
4) Cell Lysis Buffer: HEPES 20 mM (pH 7.4), EDTA 10 mM
5) Stock solution: HEPES 20 mM, EDTA 0.1 mM
6) Binding Buffer; HEPES 20 mM (pH 7.4), NaCl 100 mM, MgCl2 5 mM, GDP 1 μM, BSA 0.1% (w/v), DMSO 2.5% (v/v),
7) Washing solution: NaH2PO4 10 mM (pH 7.4)
The test compounds were dissolved in DMSO and prepared as a concentration of 20 mM.
The concentrations of the compounds were detected ranging from 0.3 nM to 20 μM.
Control group: […] SIP and SEW2871 were used as positive control and were purchased from Tocris company, and the binding buffet was as negative control.
Test method: wetting membranes by saponin solution, and preparing [^35S]-GTPγS in binding solution (4×). The test compound was prepared as 4× of the final concentration which was then performed serial 3× dilution in 100% DMSO. Membranes with high-expressed S1P1 were collected in 5 ml binding buffer, and 50 μL was added to 96-well (containing 5 μg membrane protein with high-expressed S1P1). 25 μL, test compound was added in each well. The compound was incubated with the membranes for 30 min at room temperature, then 25 μL [^35S]-GTPγS was added, and the experiment was initiated. The 96-well detection plate was incubated for 1 hour at room temperature, filtered by filtermat B, and washed with washing solution for three times. After the plate was dried for 1 h at 50° C., 8 ml scintillator solution was added and counted using scintillation counter.
Result Analysis and Determination of 50% Inhibitory Concentration (IC50):
The IC50 value was calculated by using (Prism 4) software, and 50% inhibitory concentrations were obtained.

[4] = tested on: peripheral blood lymphocyte; assay: Effects on peripheral blood lymphocyte in mice; format: in vivo, Balb/c mice; settings: intragastric; for toxicity: dose up to 30 mg/kg/d; for toxicity / behavior and weight of mice, pre- versus post-administration: four days; for numbers of peripheral blood lymphocyte reduced compared to pre-administration: once a day for continuous four days
Description: 3. Effects of the Compounds in Example-21 and Example-22 on Peripheral Blood Lymphocyte in Mice
3.1 Experimental Materials:
1) 15% EDTA, PBS, EP tubes, 15 ml centrifuge tube, capillary tube, pipette tip were all purchased from Shanghai biological technology co., Ltd. Hemocyte analysis reagents were purchased from Shanghai Sysmex Company.
2) 35 Balb/c mice (female, 20-22 g), supplied by laboratory animal center of Jilin University.
3) Automated Hematology Analyzer (pocH-100 iV Diff) was purchased from Sysmex Company, Kobe, Japan.
1) The stock solutions of the compounds obtained in Example-21 and Example-22 were prepared with normal saline, and the concentrations are 2 mg/ml and 20 mg/ml, respectively.
2) The mice were divided into […], i.e., control group, low-dose experimental group, and high-dose experimental group. They were weighed and labeled well.
3) Before administration, supraorbital venous blood was collected with 20 μl/mouse which was added to anticoagulant tube containing EDTA, and nosed thoroughly. The numbers of lymphocytes were analyzed by pocH-100.
4) The control group was given normal saline: low-dose experimental groups were given the compounds obtained in Example-21 and Example-22 (5 mg/kg/d), high-dose experimental groups were given the compounds obtained in Example-21 and Example-22 (30 mg/kg/d), with liquid amount of 500 μl/mouse, by intragastric administration. Administration was performed for continuous four days, once a day. After 3.5 hours of the first and fourth administration, blood was collected respectively, and changes in the numbers of lymphocytes were analyzed by pocH-100.

[5] = tested on: experimental rheumatoid arthritis (bovine collagen type II immunized mice); assay: Experimental rheumatoid arthritis; format: in vivo; settings: DBA/1JLacJ mice, 5 and 30 mg/kg/d intragastric, 30 days
[6] = tested on: peripheral blood lymphocyte; settings: general statement for FTY720; cited from earlier work

T1 sequence (P21453 whole entry): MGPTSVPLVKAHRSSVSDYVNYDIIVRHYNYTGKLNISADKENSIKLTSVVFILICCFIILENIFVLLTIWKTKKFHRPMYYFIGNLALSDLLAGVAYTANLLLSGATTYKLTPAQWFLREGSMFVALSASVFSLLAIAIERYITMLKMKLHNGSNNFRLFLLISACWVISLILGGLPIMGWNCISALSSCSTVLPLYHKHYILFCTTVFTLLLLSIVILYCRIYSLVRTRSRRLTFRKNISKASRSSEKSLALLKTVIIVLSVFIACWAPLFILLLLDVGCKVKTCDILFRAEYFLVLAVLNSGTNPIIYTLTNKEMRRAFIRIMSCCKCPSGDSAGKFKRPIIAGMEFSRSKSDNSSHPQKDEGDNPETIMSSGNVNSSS

Molecule | effect on induction and development of autoimmune multiple sclerosis [1] | effect on induction and development of autoimmune multiple sclerosis ([1]; listed as Example-22) | EC50 (S1P1 [2]) [nM] | IC50 (S1P1 [3]) [nM] | toxicity [4] | behavior and weight of mice, pre- versus post-administration [4] | numbers of peripheral blood lymphocyte reduced compared to pre-administration [4] [%] | effect on induction and development of experimental rheumatoid arthritis [5] | effect on induction and development of experimental rheumatoid arthritis ([5]; listed as Example-22) | effect on induction and development of autoimmune multiple sclerosis ([1]; listed as Example-21) | effect on induction and development of experimental rheumatoid arthritis ([5]; listed as Example-21) | number of peripheral blood lymphocytes decreased [6]
2-(7-amino-5,6,7,8-tetrahydro-7-naphthalenemethanol)-5-(3-methyl-4-isopropoxy)-1,3,4-oxdiazole [Example 22] | obviously inhibiting | remarkable inhibitory effects | 8 | 3 | no toxicity effects | no differences | 78 | obviously inhibiting | remarkable inhibitory effects |  |  | 
2-(7-benzylamino-5,6,7,8-tetrahydro-7-naphthalenemethanol)-5-(3-methyl-4-isopropoxy)-1,3,4-oxdiazole [Example 21] | obviously inhibiting |  |  | 179 | no toxicity effects | no differences | 92 | obviously inhibiting |  | remarkable inhibitory effects | remarkable inhibitory effects | 
CCCCCCCCc1ccc(CCC(N)(CO)CO)cc1 [FTY720] |  |  |  |  |  |  |  |  |  |  |  | 70-80%
